Measured values: patent US20070276049A1 (priority 2003, published 2007)
Like-named read-outs stand apart in the source and are kept apart here.

Tests used:
human RBCs = assay type: cell-based
rabbit RBCs [1] = assay type: cell-based
rabbit RBCs [2] = system: rabbit RBCs
[3] = system: Streptococcus pyogenes T18P; assay type: cell-based, S. pyogenes; details: GML 10 and 20 ug/ml
rabbit RBCs [4] = experiment: Streptolysin O-induced hemolysis on RBC-containing agar plates; assay type: cell-based; details: GML 10 μg/ml in agar; Group A Streptococci stabbed into agar
Method: GML (10 μg/ml) was incorporated into culture plates containing solid agar and rabbit RBCs suspended in the agar. The effect of GML on. streptolysin O-induced hemolysis was tested by stabbing the Group A Streptococci into the agar so as to permit the anaerobic growth of the bacteria beneath the surface of the agar and thereby allow streptolysin O to function.

HIV-1 = assay type: cell-based

## CCCCCCCCCCCC(=O)OCC(O)CO (stereo not drawn) [GML, glycerol monolaurate]
Human RBCs; GML 1 μg/ml
  lysis of human RBCs by the B. anthracis exotoxin: partially inhibited
Human RBCs; GML 10 μg/ml
  lysis of human RBCs by the B. anthracis exotoxin: completely inhibited
Rabbit RBCs [1]
  lysis of RBCs by hemolysin: completely prevented
Rabbit RBCs [2]
  RBC lysis by GML alone: did not cause RBC lysis
Rabbit RBCs [2]; GML 5 μg/ml
  lysis of rabbit RBCs by the B. anthracis exotoxin: partially inhibited
Rabbit RBCs [2]; GML 10 μg/ml
  lysis of rabbit RBCs by the B. anthracis exotoxin: almost completely inhibited
[3]
  number of bacteria in the epithelial cells: dramatic decreases
Rabbit RBCs [4]
  streptolysin O-induced hemolysis of RBCs: completely prevented
HIV-1
  cells expressing p24: rare and no
  total number of cells in the samples: significantly less

## α-hemolysin
Rabbit RBCs [1]
  Absorbance at 410 nm: 0.97
  lysis of RBCs: complete cell lysis
